# Laboratory results: US20070237712A1, “Methods of Redistributing Apical Target Antigens to Detect and Treat Cellular Proliferative Disease” (priority 2004, published 2007)
# Entries after “also recorded” stand apart in the source; their conditions may differ.
# Tests used:
# Format in all cases: cell-based
# microtubule cytoskeleton = test: Immunofluorescence analysis of alpha-tubulin (microtubule integrity); settings: MDCK-PSMA cells, 2 μM drug, 3 hours; FIG. 6B-D
# Procedure: (§1) MDCK cells (clone II) were obtained from the ATCC (Manassas, Va.) and cultured in DMEM (Gibco BRL, Rockville, Md.) supplemented with 10% FBS, 2 mM L-glutamine, 25 units/ml penicillin, 25 μg/ml streptomycin, and 100 μM non-essential amino acids. Cells were grown at 37° C. in a humidified incubator with 5% CO2. Cells were treated for 10 hours with 10 mM sodium butyrate to enhance PSMA expression. For experiments involving inhibition of N-glycosylation or microtubule depolymerization, cells were treated for 3 hours with 5 μg/ml tunicamycin (Sigma, St. Louis, Mo.) or 4 μg/ml nocodazole (Sigma), or 2 μM vinblastine, vincristine, or vinorelbine (Sigma) in DMEM at 37° C. prior to the indicated experiment, unless otherwise noted.
# Tissue sections and MDCK cells were fixed in cold methanol at −20° C. for 30 minutes. Following fixation, specimens were placed in humidified chambers, washed with phosphate buffered saline containing 0.1 mM CaCl2 and 1 mM MgCl2 and 0.5% bovine serum albumin (PBS-CM-BSA), incubated 1 hour with primary antibody, washed with PBS-CM-BSA, incubated 30 minutes in secondary antibody, washed with PBS-CM-BSA, rinsed with distilled water, and mounted in Vectashield (Vector, Burlingame, Calif.).
# MDCK-PSMA cells [1] = test: Domain specific internalization assay of J591; settings: MDCK-PSMA monolayers, 2 μM drug 3 hours; for J591 uptake from the apical surface after drug treatment: then 5 μg/ml J591 30 minutes in apical chamber, FIG. 6F-H; for J591 internalization from the basolateral surface after drug treatment: then 5 μg/ml J591 30 minutes in basolateral chamber, FIG. 6J-L
# Procedure: MDCK-PSMA cells were grown on […] pore size polycarbonate transwell filters (Corning, Corning, N.Y.) and grown to confluence as measured by transepithelial electrical resistance (TER) using an EVOM Epithelial Voltometer (World Precision Instruments, Sarasota, Fla.). Values were normalized for the area of the filter after subtracting the background resistance of a filter without cells. TER of 220-250Ω·cm^2 is indicative of the presence of functional tight junctions (24). Cells were treated with 2 μM of vinblastine, vincristine, or vinorelbine at 37° C. for 3 hours and subsequently incubated at 37° C. for 30 minutes in the presence of the indicated drug and 5 μg/ml of J591 added to either the apical or basolateral chamber. Cells were rinsed in PBS-CM, fixed, and subject to immunofluorescence analysis with FITC-conjugated secondary antibody. Single channel digital microscopic images were collected with an Olympus AX70 upright microscope using identical exposure parameters and analyzed with SPOT imaging software, version 4.0.4 (Diagnostic Instruments, Inc., Sterling Heights, Mich.).
# PSMA [2] = test: Selective cell surface biotinylation assay of PSMA at apical or basolateral plasma membrane
# Procedure: as §1
# (§2) MDCK cells were grown to confluence on transwell filters, as determined by TER, and biotinylation of the apical or basolateral surface was performed as described (25). […]
# Samples were separated on 10% SDS polyacrylamide gels and transferred to nitrocellulose. […] After washing three times in PBST and once in PBS, bound antibody was detected by peroxidase-catalyzed ECL-Plus (Amersham, Buckinghamshire, UK). Densitometric analysis and quantification of bands was performed using ImageQuant software (Molecular Dynamics, Sunnyvale, Calif.). […]
# MDCK-PSMA cells [3] = test: Post-Golgi analysis assay: co-localization of PSMA and Na,K-β-GFP vesicles after 20° C. block; settings: data not shown
# Procedure: MDCK-PSMA cells transiently transfected to express Na,K-β-GFP were grown on glass coverslips and treated with nocodazole or tunicamycin. Cells were incubated for 6 hours at 20° C. to accumulate newly synthesized protein in the Golgi and TGN, subsequently transferred to 37° C. for 30 minutes, and subject to immunofluorescence analysis as described above. Laser scanning confocal microscopy was performed using a Zeiss Axiovert 200 inverted microscope (Carl Zeiss, Inc, Thornwood, N.Y.). Samples were excited with Argon and Helium/Neon lasers and single channel images were generated and analyzed using the Zeiss LSM 510 Meta imaging system (Carl Zeiss, Inc.) by recording light emitted between 505 and 543 nm for GFP and above 560 nm for CY3.
# Na,K-ATPase = test: Cell surface biotinylation / immunoblot of basolateral marker Na,K-ATPase; settings: MDCK-PSMA cells treated with nocodazole; FIG. 5B
# Procedure: as §1, §2
# Samples were separated on 10% SDS polyacrylamide gels and transferred to nitrocellulose. […] After washing three times in PBST and once in PBS, bound antibody was detected by peroxidase-catalyzed ECL-Plus (Amersham, Buckinghamshire, UK). Densitometric analysis and quantification of bands was performed using ImageQuant software (Molecular Dynamics, Sunnyvale, Calif.).
# PSMA [4] = test: Surface immunofluorescence of PSMA; settings: MDCK-PSMA cells treated with nocodazole; data not shown
# Procedure: as §1
# For cell surface staining, MDCK cells were grown on transwell filters and the transepithelial electrical resistance (TER) was determined using an EVOM Epithelial Voltohmeter (World Precision Instruments, Sarasota, Fla.). […]
# Confocal microscopy was performed using a Fluoview laser scanning confocal microscope (Olympus America, Melville, N.Y.) as described (25). To detect FITC and propidium iodide, samples were excited with krypton and argon lasers and light emitted between 525 and 540 nm was recorded for FITC and above 630 nm for propidium iodide. Images were generated and analyzed using the Fluoview image analysis software, version 2.1.39 (Olympus America).
# PSMA [5] = test: Antibody internalization trafficking assay (pulse-chase with mAb J591 in apical or basolateral chamber); settings: MDCK-PSMA cells pulsed and chased in the presence of nocodazole (three hours); FIG. 5C
# Procedure: as §1
# Confluent monolayers of MDCK-PSMA cells on transwell filters were rinsed twice and incubated for 30 minutes in starving media [cystine/methionine free DMEM (CellGro, Herndon, Va.)] supplemented with 0.2% BSA. […]
# For the antibody internalization trafficking assay, MDCK cells were metabolically labeled and chased in DMEM containing 5 μg/ml of mAb J591 added to either the apical or basolateral chamber. […] The relative amount of PSMA for each was calculated as a percentage of the total amount of labeled PSMA precipitated throughout the course of the experiment, as quantified by densitometry.
Compound,depolymerization of the microtubule cytoskeleton (microtubule cytoskeleton),J591 uptake from the apical surface after drug treatment (MDCK-PSMA cells [1]),J591 internalization from the basolateral surface after drug treatment (MDCK-PSMA cells [1]),other results
CC[C@]1(O)C[C@H]2CN(CCc3c([nH]c4ccccc34)[C@@](C(=O)OC)(c3cc4c(cc3OC)N(C=O)[C@H]3[C@@](O)(C(=O)OC)[C@H](OC(C)=O)[C@]5(CC)C=CCN6CC[C@]43[C@@H]65)C2)C1 [vincristine],Extensive microtubule depolymerization,also taken up from the apical surface,dramatic increase,–
tunicamycin,–,–,–,"distribution of surface PSMA between apical and basolateral plasma membrane (PSMA [2]; MDCK-PSMA cells metabolically labeled in the presence of tunicamycin (10 μg/ml, 4 hours), FIG. 4): equivalent levels at both plasma membrane surfaces; level of co-localization of post-Golgi vesicles containing PSMA and Na,K-ATPase (MDCK-PSMA cells [3]; MDCK-PSMA cells incubated with tunicamycin, 20° C. block then 37° C., 38/88 vesicles): approximately 43%"
CCC1=C[C@@H]2CN(C1)Cc1c([nH]c3ccccc13)[C@@](C(=O)OC)(c1cc3c(cc1OC)N(C)[C@H]1[C@@](O)(C(=O)OC)[C@H](OC(C)=O)[C@]4(CC)C=CCN5CC[C@]31[C@@H]54)C2 [vinorelbine],Extensive microtubule depolymerization,also taken up from the apical surface,dramatic increase,–
CC[C@]1(O)C[C@@H]2CN(CCc3c([nH]c4ccccc34)[C@@](C(=O)OC)(c3cc4c(cc3OC)N(C)[C@H]3[C@@](O)(C(=O)OC)[C@H](OC(C)=O)[C@]5(CC)C=CCN6CC[C@]43[C@@H]65)C2)C1 [vinblastine],Extensive microtubule depolymerization,also taken up from the apical surface,dramatic increase,–
"COC(=O)Nc1nc2cc(C(=O)c3cccs3)ccc2[nH]1 [nocodazole, methyl[5-(2-thienyl-carbonyl)-1H-benzimidazol-2-yl]-carbamate]",–,–,–,"distribution of surface PSMA between apical and basolateral plasma membrane (PSMA [2]; MDCK-PSMA cells treated with nocodazole (4 μg/ml, 3 hours), FIG. 5A): homogeneous distribution; polarity of the basolateral marker Na,K-ATPase (Na,K-ATPase): unaffected; co-localization of PSMA and Na,K-β-GFP in post-Golgi vesicles (MDCK-PSMA cells [3]; in the presence of nocodazole, after release from 20° C. block): did not show an increased co-localization; PSMA expression at the basolateral plasma membrane relative to untreated cells (PSMA [4]): increased PSMA expression at the basolateral plasma membrane; radiolabeled PSMA precipitated with J591 in apical versus basolateral chamber (polarized delivery of PSMA) (PSMA [5]): equivalent levels; also recorded: abolished"
